# Assay results taken from patent publication US9604968B2, “Pure crystalline Form II of L-malic acid salt of sunitinib and processes for its preparation” (RANBAXY LABORATORIES LIMITED, priority 2013, dated 2017).
# Columns and labels:
# [1] = Storage stability: chromatographic purity (HPLC) of crystalline Form II on storage; assay type: physicochemical; details: for Chromatographic Purity (1M storage at 25° C. ± 2° C./60% ± 5% RH) / Chromatographic Purity after 1M storage (at 25° C.±2° C./60%±5% RH) / Chromatographic Purity (1M storage at 40° C. ± 2° C./75% ± 5% RH) / Chromatographic Purity after 1M storage (at 40° C.±2° C./75%±5% RH): 1 month storage; for Chromatographic Purity (Initial): before storage
# Excerpt: In an embodiment of the first aspect, the pure crystalline Form II of the L-malic acid salt of sunitinib has a purity of not less than 97.0% as measured by a chromatographic technique such as High-Performance Liquid Chromatography (HPLC).
# Table 1 below compares the chromatographic purity of crystalline Form II of an L-malic acid salt of sunitinib prepared without using an anti-oxidant (as per Example 8), and pure crystalline Form II of an L-malic acid salt of sunitinib prepared using an anti-oxidant (as per Examples 1, 2, and 4), on storage at 25° C.±2° C. and 40° C.±2° C. at a relative humidity of 60%±5% and 75%±5%, respectively, for 1 month and above.
# [2] = cited from earlier work
SMILES,"Chromatographic Purity (1M storage at 25° C. ± 2° C./60% ± 5% RH) ([1]; 25° C.±2° C., 60%±5% RH) [% w/w]","Chromatographic Purity after 1M storage (at 25° C.±2° C./60%±5% RH) ([1]; 25° C.±2° C., 60%±5% RH) [%]","Chromatographic Purity (1M storage at 40° C. ± 2° C./75% ± 5% RH) ([1]; 40° C.±2° C., 75%±5% RH) [% w/w]","Chromatographic Purity after 1M storage (at 40° C.±2° C./75%±5% RH) ([1]; 40° C.±2° C., 75%±5% RH) [%]",Chromatographic Purity (Initial) [1] [% w/w],Chromatographic Purity (Initial) ([1]; example text) [%],"Chromatographic Purity (1M storage at 25° C. ± 2° C./60% ± 5% RH) ([1]; 25° C. ± 2° C., 60% ± 5% RH, listed as Example 8) [% w/w]","Chromatographic Purity (1M storage at 40° C. ± 2° C./75% ± 5% RH) ([1]; 40° C. ± 2° C., 75% ± 5% RH, listed as Example 8) [% w/w]",Chromatographic Purity (Initial) ([1]; listed as Example 8) [% w/w],hygroscopicity ([2]; disclosed in WO 2009/104021),form conversion and moisture absorption on storage ([2]; disclosed in WO 2011/061613)
"CCN(CC)CCNC(=O)c1c(C)[nH]c(/C=C2\C(=O)Nc3ccc(F)cc32)c1C.O=C(O)C[C@H](O)C(=O)O [Example 1, butanedioic acid, hydroxy-, (2S)-, compound with N-[2-(diethylamino)ethyl]-5-[(Z)-(5-fluoro-1,2-dihydro-2-oxo-3H-indol-3-ylidine)methyl]-2,4-dimethyl-1H-pyrrole-3-carboxamide (1:1)]",98.4,98.4,97.0,97.0,99.1,99.10,–,–,–,–,–
"CCN(CC)CCNC(=O)c1c(C)[nH]c(/C=C2\C(=O)Nc3ccc(F)cc32)c1C.O=C(O)C[C@H](O)C(=O)O [Example 2, butanedioic acid, hydroxy-, (2S)-, compound with N-[2-(diethylamino)ethyl]-5-[(Z)-(5-fluoro-1,2-dihydro-2-oxo-3H-indol-3-ylidine)methyl]-2,4-dimethyl-1H-pyrrole-3-carboxamide (1:1)]",98.7,98.7,97.3,97.3,99.7,99.70,–,–,–,–,–
"CCN(CC)CCNC(=O)c1c(C)[nH]c(/C=C2\C(=O)Nc3ccc(F)cc32)c1C.O=C(O)C[C@H](O)C(=O)O [Example 4, butanedioic acid, hydroxy-, (2S)-, compound with N-[2-(diethylamino)ethyl]-5-[(Z)-(5-fluoro-1,2-dihydro-2-oxo-3H-indol-3-ylidine)methyl]-2,4-dimethyl-1H-pyrrole-3-carboxamide (1:1)]",99.7,99.70,99.3,99.3,99.7,99.70,–,–,–,–,–
"CCN(CC)CCNC(=O)c1c(C)[nH]c(/C=C2\C(=O)Nc3ccc(F)cc32)c1C.O=C(O)C[C@H](O)C(=O)O [Example 7, butanedioic acid, hydroxy-, (2S)-, compound with N-[2-(diethylamino)ethyl]-5-[(Z)-(5-fluoro-1,2-dihydro-2-oxo-3H-indol-3-ylidine)methyl]-2,4-dimethyl-1H-pyrrole-3-carboxamide (1:1)]",–,87.4,–,87.8,–,99.50,87.4,87.8,99.5,–,–
CCN(CC)CCNC(=O)c1c(C)[nH]c(/C=C2\C(=O)Nc3ccc(F)cc32)c1C.O=C(O)C[C@H](O)C(=O)O [Form II of sunitinib L-malate],–,–,–,–,–,–,–,–,–,hygroscopic,–
CCN(CC)CCNC(=O)c1c(C)[nH]c(/C=C2\C(=O)Nc3ccc(F)cc32)c1C.O=C(O)C[C@H](O)C(=O)O [stable crystalline Form II],–,–,–,–,–,–,–,–,–,–,does not convert to any other form or absorb moisture on storage
